Assay results from PubChem BioAssay AID2060904 (Molecular Pharmacology Branch, DTP, NCI, 2025).

Test system: 349418-098-R-PDC complex spheroid viability
Test: Anticancer human tumor 349418-098-R-PDC patient-derived lung adenocarcinoma cell line growth inhibition [RAS]
Settings: for viability, T/C: stronger effect = lower value
How it was run: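 Multi-cell-type spheroids: tumor cells plus HUVEC endothelial cells and mesenchymal stem cells. RAS-pathway inhibitors were combined with targeted agents, each dosed in half-log steps down from clinical Cmax, or from 10 microM when Cmax was unknown.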
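Note: spheroids exposed to compound for seven days before viability readout.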

Work on `CC(C)NCC(C(=O)N1CCN(c2ncnc3c2C(C)CC3O)CC1)c1ccc(Cl)cc1` (stereo unspecified) + C#Cc1c(F)ccc2cc(O)cc(-c3ncc4c(N5CC6CCC(C5)N6)nc(OCC56CCCN5CC(F)C6)nc4c3F)c12 yielded an IC50 (curve of first compound, second compound 0.0316 µM) of 342 nM, an IC50 (curve of first compound, second compound 0.1 µM) of 572 nM and an IC50 (curve of first compound, second compound 0.316 µM) of 186 nM. The IC50 (curve of first compound, second compound 1 µM) was 347 nM, the IC50 (curve of first compound, second compound 3.16 µM) was 519 nM and the IC50 (curve of first compound, second compound 10 µM) was 35 nM. The viability, T/C (second compound 0.0316 µM, first compound 0.0316 µM) was 84%, the viability, T/C (second compound 0.0316 µM, first compound 0.1 µM) was 59.1% and the viability, T/C (second compound 0.0316 µM, first compound 0.316 µM) was 60.1%. For the same compound, the viability, T/C (second compound 0.0316 µM, first compound 1 µM) was 29.7%, the viability, T/C (second compound 0.0316 µM, first compound 3.16 µM) was 25.2% and the viability, T/C (second compound 0.0316 µM, first compound 10 µM) was 9.07%. For the same compound, the viability, T/C (second compound 0.1 µM, first compound 0.0316 µM) was 62.7%, the viability, T/C (second compound 0.1 µM, first compound 0.1 µM) was 78.9% and the viability, T/C (second compound 0.1 µM, first compound 0.316 µM) was 68.8%. For the same compound, the viability, T/C (second compound 0.1 µM, first compound 1 µM) was 32.4%, the viability, T/C (second compound 0.1 µM, first compound 3.16 µM) was 20.9% and the viability, T/C (second compound 0.1 µM, first compound 10 µM) was 11.5%. For the same compound, the viability, T/C (second compound 0.316 µM, first compound 0.0316 µM) was 72.6%, the viability, T/C (second compound 0.316 µM, first compound 0.1 µM) was 46.6% and the viability, T/C (second compound 0.316 µM, first compound 0.316 µM) was 51.7%. It also gave a viability, T/C (second compound 0.316 µM, first compound 1 µM) of 31.1%, a viability, T/C (second compound 0.316 µM, first compound 3.16 µM) of 21.5% and a viability, T/C (second compound 0.316 µM, first compound 10 µM) of 8.74%. It also gave a viability, T/C (second compound 1 µM, first compound 0.0316 µM) of 75%, a viability, T/C (second compound 1 µM, first compound 0.1 µM) of 54.8% and a viability, T/C (second compound 1 µM, first compound 0.316 µM) of 62.9%. The viability, T/C (second compound 1 µM, first compound 1 µM) was 28.8%, the viability, T/C (second compound 1 µM, first compound 3.16 µM) was 27.3% and the viability, T/C (second compound 1 µM, first compound 10 µM) was 7.4%. The viability, T/C (second compound 3.16 µM, first compound 0.0316 µM) was 61.9%, the viability, T/C (second compound 3.16 µM, first compound 0.1 µM) was 75.1% and the viability, T/C (second compound 3.16 µM, first compound 0.316 µM) was 55.1%. It also gave a viability, T/C (second compound 3.16 µM, first compound 1 µM) of 39.2%, a viability, T/C (second compound 3.16 µM, first compound 3.16 µM) of 19.7% and a viability, T/C (second compound 3.16 µM, first compound 10 µM) of 10.7%. It also gave a viability, T/C (second compound 10 µM, first compound 0.0316 µM) of 60.7%, a viability, T/C (second compound 10 µM, first compound 0.1 µM) of 26.3% and a viability, T/C (second compound 10 µM, first compound 0.316 µM) of 28.1%. It also gave a viability, T/C (second compound 10 µM, first compound 1 µM) of 47.3%, a viability, T/C (second compound 10 µM, first compound 3.16 µM) of 16.9% and a viability, T/C (second compound 10 µM, first compound 10 µM) of 3.22%.

For `O=C(c1ccc(F)c(F)c1Nc1ccc(I)cc1F)N1CC(O)([C@@H]2CCCCN2)C1`, the viability, T/C (compound 0.00316 µM) was 35.9% [middle of 4 runs], the viability, T/C (compound 0.01 µM) was 35.3% [middle of 4 runs] and the viability, T/C (compound 0.0316 µM) was 33% [middle of 4 runs]. For the same compound, the viability, T/C (compound 0.1 µM) was 12.2% [middle of 4 runs], the viability, T/C (compound 0.316 µM) was 7.62% [middle of 4 runs] and the viability, T/C (compound 1 µM) was 6.03% [middle of 4 runs]. The IC50 (curve of compound) was < 3.16 nM.

`CCN1CCN(Cc2ccc(Nc3ncc(F)c(-c4cc(F)c5nc(C)n(C(C)C)c5c4)n3)nc2)CC1` + CCn1c(-c2cccnc2C(C)OC)c2c3cc(ccc31)N1CCOC(CC(NC(=O)C(C(C)C)N(C)C(=O)C3(F)CCN(C(=O)C#CC(C)(C)N(C)C)CC3)C(=O)N3CCCC(N3)C(=O)OCC(C)(C)C2)C1 was tested, and the IC50 (curve of first compound, second compound 0.000949 µM) was 12 nM, the IC50 (curve of first compound, second compound 0.003 µM) was 14.7 nM and the IC50 (curve of first compound, second compound 0.00949 µM) was 13.6 nM. The IC50 (curve of first compound, second compound 0.03 µM) was 8.64 nM, the IC50 (curve of first compound, second compound 0.0949 µM) was 9.8 nM and the IC50 (curve of first compound, second compound 0.3 µM) was 7.33 nM. For the same compound, the viability, T/C (second compound 0.000949 µM, first compound 0.00316 µM) was 80.1%, the viability, T/C (second compound 0.000949 µM, first compound 0.01 µM) was 54.1% and the viability, T/C (second compound 0.000949 µM, first compound 0.0316 µM) was 30.6%. For the same compound, the viability, T/C (second compound 0.000949 µM, first compound 0.1 µM) was 22.5%, the viability, T/C (second compound 0.000949 µM, first compound 0.316 µM) was 18.7% and the viability, T/C (second compound 0.000949 µM, first compound 1 µM) was 13.1%. It also gave a viability, T/C (second compound 0.003 µM, first compound 0.00316 µM) of 85.5%, a viability, T/C (second compound 0.003 µM, first compound 0.01 µM) of 61% and a viability, T/C (second compound 0.003 µM, first compound 0.0316 µM) of 28%. It also gave a viability, T/C (second compound 0.003 µM, first compound 0.1 µM) of 20.3%, a viability, T/C (second compound 0.003 µM, first compound 0.316 µM) of 16.8% and a viability, T/C (second compound 0.003 µM, first compound 1 µM) of 13.4%. It also gave a viability, T/C (second compound 0.00949 µM, first compound 0.00316 µM) of 96%, a viability, T/C (second compound 0.00949 µM, first compound 0.01 µM) of 52.2% and a viability, T/C (second compound 0.00949 µM, first compound 0.0316 µM) of 39.1%. For the same compound, the viability, T/C (second compound 0.00949 µM, first compound 0.1 µM) was 22.3%, the viability, T/C (second compound 0.00949 µM, first compound 0.316 µM) was 16.1% and the viability, T/C (second compound 0.00949 µM, first compound 1 µM) was 14.7%. It also gave a viability, T/C (second compound 0.03 µM, first compound 0.00316 µM) of 80.5%, a viability, T/C (second compound 0.03 µM, first compound 0.01 µM) of 44.6% and a viability, T/C (second compound 0.03 µM, first compound 0.0316 µM) of 29%. It also gave a viability, T/C (second compound 0.03 µM, first compound 0.1 µM) of 21.5%, a viability, T/C (second compound 0.03 µM, first compound 0.316 µM) of 15.9% and a viability, T/C (second compound 0.03 µM, first compound 1 µM) of 14.4%. For the same compound, the viability, T/C (second compound 0.0949 µM, first compound 0.00316 µM) was 73.4%, the viability, T/C (second compound 0.0949 µM, first compound 0.01 µM) was 48.7% and the viability, T/C (second compound 0.0949 µM, first compound 0.0316 µM) was 34.5%. It also gave a viability, T/C (second compound 0.0949 µM, first compound 0.1 µM) of 16.6%, a viability, T/C (second compound 0.0949 µM, first compound 0.316 µM) of 20.6% and a viability, T/C (second compound 0.0949 µM, first compound 1 µM) of 12.5%. It also gave a viability, T/C (second compound 0.3 µM, first compound 0.00316 µM) of 61.5%, a viability, T/C (second compound 0.3 µM, first compound 0.01 µM) of 45.5% and a viability, T/C (second compound 0.3 µM, first compound 0.0316 µM) of 33.2%. It also gave a viability, T/C (second compound 0.3 µM, first compound 0.1 µM) of 21.4%, a viability, T/C (second compound 0.3 µM, first compound 0.316 µM) of 19% and a viability, T/C (second compound 0.3 µM, first compound 1 µM) of 13.5%.
